Assay results from PMC10254314 (2023).

Assays:
[1] = tested on: poly A–poly U (pApU) (RNA, polymer) A/U; assay: UV thermal melting at 260 nm; details: Na+ (sodium cacodylate, I = 0.05 M), pH 7, r = [compound]/[polynucleotide] = 0.3, polynucleotide 2 × 10^-5 M, per base
[2] = tested on: poly dAdT–poly dAdT (AT-DNA) (DNA, polymer) AT; assay: UV/vis titration, Scatchard (McGhee–von Hippel) fit; details: Na+ (sodium cacodylate, I = 0.05 M), pH 7.0, n fixed 0.2, per base
[3] = tested on: poly dAdT–poly dAdT (AT-DNA) (DNA, polymer) AT; assay: UV thermal melting at 260 nm; details: Na+ (sodium cacodylate, I = 0.05 M), pH 7, r = [compound]/[polynucleotide] = 0.3, polynucleotide 2 × 10^-5 M, per base

| ΔTm [1] | logKs [2] | ΔTm [3] [°C] | SMILES |
| --- | --- | --- | --- |
| −1.5 ± 0.5 °C |  |  | COc1cc2c(cc1OC)SC(c1ccc(NCc3cccc(C)c3)cc1)=[N+](C)C2 |
| −1.2 ± 0.5 °C | 4.9 | −2.1 ± 0.5 | COc1ccc(Nc2ccc(C3=[N+](C)Cc4cccc(Nc5ccc(OC)cc5)c4S3)cc2)cc1 |
| +1 ± 0.5 °C |  |  | COc1cc2c(cc1OC)SC(c1ccc(NCc3ccc(Cl)cc3)cc1)=[N+](C)C2 |
| +3.5 ± 0.5 °C | 4.9 | −1.5 ± 0.5 | COc1ccc(Nc2ccc(C3=[N+](C)Cc4cc(Nc5ccc(OC)cc5)ccc4S3)cc2)cc1 |
